Experimental findings from patent US20120302569A1, “PHENYL-THIAZOLYL INHIBITORS OF PRO-MATRIX METALLOPROTEINASE ACTIVATION” (priority 2011, published 2012) are described below.

Where a name gives a salt, the structure may show the parent alone.

Experiment [1] addresses T1, full-length proMMP9(1-707) (SEQ ID NO:1) (Homo sapiens, UniProt P14780, R574P).
T1 construct: made in house; host or cells: HEK293 (proMMP9, secreted); E. coli (MMP3)
Nature of the experiment: proMMP9/MMP3 P126 Activation Assay. It counts as biochemical. To be noted: proMMP9(1-707) from HEK293 cells activated by catalytic MMP3. As to the method: proMMP9/MMP3 P126 Activation Assay
The reaction volume was 50 μL. […] Reactivity of residual MMP3 towards P-126 substrate was minimal under these conditions.

In experiment [2] the target is T2, proMMP9(67-444;ΔFnII) (SEQ ID NO:5) (Homo sapiens, UniProt P14780, DEL216-390).
T2 construct: start methionine (N); made in house; host or cells: E. coli BL21(DE3) RIL
T2 sequence (P14780 with tags, fused parts or gaps DEL216-390): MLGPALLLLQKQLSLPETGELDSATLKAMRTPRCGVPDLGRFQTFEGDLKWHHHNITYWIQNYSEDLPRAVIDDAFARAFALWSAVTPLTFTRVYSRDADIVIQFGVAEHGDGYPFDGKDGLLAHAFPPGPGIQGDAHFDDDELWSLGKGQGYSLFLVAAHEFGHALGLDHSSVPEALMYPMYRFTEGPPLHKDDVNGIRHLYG
The experiment in a line: ThermoFluor with proMMP9(67-444;ΔFnII). To be noted: read-out: proMMP9(67-444; ΔFnII) (SEQ ID NO: 5) binding. As to the method: (§1) The ThermoFluor® (TF) assay is a 384-well plate-based binding assay that measures thermal stability of proteins (Biomol Screen 2001, 6, 429-40; Biochemistry 2005, 44, 5258-66). The experiments were carried out using instruments available from Johnson & Johnson Pharmaceutical Research & Development, LLC. TF dye used in all experiments was […] (1,8-ANS) (Invitrogen: A-47).
(§2) Compounds were arranged in a pre-dispensed plate (Greiner Bio-one: 781280), wherein compounds were serially diluted in 100% DMSO across 11 columns within a series. Columns 12 and 24 were used as DMSO reference and contained no compound. For multiple compound concentration-response experiments, the compound aliquots (50 nL) were robotically predispensed directly into black 384-well polypropylene PCR microplates (Abgene: TF-0384/k) using a Cartesian Hummingbird liquid handler (DigiLab, Holliston, Mass.). Following compound dispense, protein and dye solutions were added to achieve the final assay volume of 3 μL. The assay solutions were overlayed with 1 μL of silicone oil (Fluka, type DC 200: 85411) to prevent evaporation.
(§3) Assay plates were robotically loaded onto a thermostatically controlled PCR-type thermal block and then heated from 40 to 90° C. at a ramp-rate of 1° C./min for all experiments. Fluorescence was measured by continuous illumination with UV light (Hamamatsu LC6) supplied via fiber optics and filtered through a band-pass filter (380-400 nm; >6 OD cutoff). Fluorescence emission of the entire 384-well plate was detected by measuring light intensity using a CCD camera (Sensys, Roper Scientific) filtered to detect 500±25 nm, resulting in simultaneous and independent readings of all 384 wells. A single image with 20-sec exposure time was collected at each temperature, and the sum of the pixel intensity in a given area of the assay plate was recorded vs temperature and fit to standard equations to yield the Tm (J Biomol Screen 2001, 6, 429-40).
(§4) Thermodynamic parameters necessary for fitting compound binding for each proMMP were estimated by differential scanning calorimetry (DSC) and from ThermoFluor® data. The heat capacity of unfolding for each protein was estimated from the molecular weight and from ThermoFluor® dosing data.
ThermoFluor® with proMMP9(67-444;ΔFnII) (SEQ ID NO:5)
The protein sample preparations had to include a desalting buffer exchange step via a PD-10 gravity column (GE Healthcare). The desalting buffer exchange was performed prior to diluting the protein to the final assay concentration of 3.5 μM proMMP9(67-444;ΔFnII) (SEQ ID NO:5). The concentration of proMMP9(67-444;ΔFnII) (SEQ ID NO:5) was determined spectrophotometrically based on a calculated extinction coefficient of ε280=33900 M^−1cm^−1, a calculated molecular weight of 22.6 kDa, and calculated pI of 5.20. ThermoFluor® reference conditions were defined as follows: 80 μg/mL (3.5 μM) proMMP9(67-444;ΔFnII) (SEQ ID NO:5), 50 μM 1,8-ANS, pH 7.0 Buffer (50 mM HEPES pH 7.0, 100 mM NaCl, 0.001% Tween-20, 2.5 mM MgCl2, 300 μM CaCl2). The thermodynamic parameters for proMMP9(67-444;ΔFnII) (SEQ ID NO:5) are as follows: Tm (° C.)=63 (+/−0.1), ΔUH(Tm) (cal mol^−1)=105000(+/−5000), ΔUS(Tm) (cal mol^−1 K^−1)=450, […].

The target of experiment [3] is T3, proMMP9(20-445;ΔFnII) (SEQ ID NO:6) (Homo sapiens, UniProt P14780, DEL216-390).
T3 construct: start methionine (N); made in house; host or cells: E. coli BL21(DE3) RIL
T3 sequence (P14780 with tags, fused parts or gaps DEL216-390): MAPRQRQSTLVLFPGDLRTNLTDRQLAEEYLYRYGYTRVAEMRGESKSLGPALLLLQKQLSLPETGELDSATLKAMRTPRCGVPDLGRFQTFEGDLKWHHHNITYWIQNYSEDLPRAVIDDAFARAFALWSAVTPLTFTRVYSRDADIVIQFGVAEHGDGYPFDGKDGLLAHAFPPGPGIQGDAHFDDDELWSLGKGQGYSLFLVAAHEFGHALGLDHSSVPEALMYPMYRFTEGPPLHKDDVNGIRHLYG
Nature of the experiment: ThermoFluor with proMMP9(20-445;ΔFnII). To be noted: read-out: proMMP9(20-445; ΔFnII) (SEQ ID NO: 6) binding. As to the method: as §1, §2, §3, §4
ThermoFluor® with proMMP9(20-445;ΔFnII) (SEQ ID NO:6)
The protein sample preparations included a desalting buffer exchange step via a PD-10 gravity column (GE Healthcare). The desalting buffer exchange was performed prior to diluting the protein to the final assay concentration of 2.8 μM proMMP9(20-445;ΔFnII) (SEQ ID NO:6). The concentration of proMMP9(20-445;ΔFnII) (SEQ ID NO:6) was determined spectrophotometrically based on a calculated extinction coefficient of ε280=39880 M^−1cm^−1, a calculated molecular weight of 28.2 kDa, and calculated pI of 5.5. ThermoFluor® reference conditions were define as follows: 80 μg/mL (2.8 μM) proMMP9(20-445;ΔFnII) (SEQ ID NO:6), 50 μM 1,8-ANS, pH 7.0 Buffer (50 mM HEPES pH 7.0, 100 mM NaCl, 0.001% Tween-20, 2.5 mM MgCl2, 300 μM CaCl2). The thermodynamic parameters for proMMP9(20-445;ΔFnII) (SEQ ID NO:6) are as follows: Tm (° C.)=72 (+/−0.1), ΔUH(Tm) (cal mol^−1)=160000(+/−5000), ΔUS(Tm) (cal mol^−1 K^−1)=434, ΔUCp (cal mol^−1 K^−1)=2400.
A general note: In DSF a fluorescence change marks the thermal transition of the protein.

T1 sequence (P14780 20-707 R574P): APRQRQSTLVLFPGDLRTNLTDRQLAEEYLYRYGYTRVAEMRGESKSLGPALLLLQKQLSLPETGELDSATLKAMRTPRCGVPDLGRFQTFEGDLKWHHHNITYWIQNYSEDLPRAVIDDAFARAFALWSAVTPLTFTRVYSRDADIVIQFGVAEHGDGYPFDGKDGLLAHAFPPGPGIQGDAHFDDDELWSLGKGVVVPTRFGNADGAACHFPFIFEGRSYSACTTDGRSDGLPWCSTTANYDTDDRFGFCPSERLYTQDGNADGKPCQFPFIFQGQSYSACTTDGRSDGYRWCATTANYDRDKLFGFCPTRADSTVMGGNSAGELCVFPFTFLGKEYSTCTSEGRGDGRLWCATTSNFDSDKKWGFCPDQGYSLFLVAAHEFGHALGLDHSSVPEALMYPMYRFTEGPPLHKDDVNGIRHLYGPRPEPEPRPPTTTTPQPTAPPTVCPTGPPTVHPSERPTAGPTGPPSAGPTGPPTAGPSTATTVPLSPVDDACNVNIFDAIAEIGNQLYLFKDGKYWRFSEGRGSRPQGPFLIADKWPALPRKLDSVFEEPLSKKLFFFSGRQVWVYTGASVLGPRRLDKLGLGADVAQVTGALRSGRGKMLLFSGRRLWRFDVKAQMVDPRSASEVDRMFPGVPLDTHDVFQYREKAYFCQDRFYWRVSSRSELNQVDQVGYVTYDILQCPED

A word on the IC50: it is the point on the concentration scale where inhibition reaches its midpoint. High values mean a need for much substance, low ones inhibition by little substance. Regarding `CC(C)Oc1ccc(S(N)(=O)=O)cc1Nc1nc(-c2ccc(N3CCN(Cc4ccccc4)CC3)cc2)cs1` [Example 6, 3-((4-(4-(4-Benzylpiperazin-1-yl)phenyl)thiazol-2-yl)amino)-4-isopropoxybenzenesulfonamide.TFA], the half-inhibitory concentration (IC50) in experiment [1] was 1.2 µM. The Kd in experiment [2] came to 0.65 µM; in experiment [3] it was 0.41 µM.

On to `CC(C)Oc1ccc(S(N)(=O)=O)cc1Nc1nc(-c2ccc(C3=CCN(C(C)C)CC3)cc2)cs1` [Example 15, 4-Isopropoxy-3-((4-(4-(1-isopropyl-1,2,3,6-tetrahydropyridin-4-yl)phenyl)thiazol-2-yl)amino)benzenesulfonamide.TFA], for which inhibition in experiment [1] was half-maximal at 0.028 µM (IC50). Further, the Kd stood at 0.018 µM in experiment [2] and 0.017 µM in experiment [3].

As to `NS(=O)(=O)c1ccc(OC(F)(F)F)c(Nc2nc(-c3ccc(OCCN4CCOCC4)cc3)cs2)c1` [Example 30, 3-((4-(4-(2-Morpholinoethoxy)phenyl)thiazol-2-yl)amino)-4-(trifluoromethoxy)benzenesulfonamide.TFA], the IC50 in experiment [1] was found to be 1.1 µM. For the same compound, the values for the Kd in experiment [2] and in experiment [3] were 1.3 µM and 1.2 µM, respectively.

`CC(C)Oc1ccc(S(N)(=O)=O)cc1Nc1nc(-c2ccc(CN3CCC(F)CC3)cc2)cs1` [Example 55, 3-((4-(4-((4-fluoropiperidin-1-yl)methyl)phenyl)thiazol-2-yl)amino)-4-isopropoxybenzenesulfonamide.TFA] came in with an IC50 in experiment [1] of 0.14 µM. Moreover, the Kd in experiment [2] stood at 0.053 µM; in experiment [3] it was 0.03 µM.

`CC(C)Oc1ccc(C(N)=O)cc1Nc1nc(-c2ccc(OCCN3CCOCC3)cc2)cs1` [Example 29, 4-Isopropoxy-3-((4-(4-(2-morpholinoethoxy)phenyl)thiazol-2-yl)amino)benzamide.TFA] gave an IC50 in experiment [1] of 0.15 µM. Besides, the results for the Kd in experiment [2] and in experiment [3] were 0.1 µM and 0.028 µM, respectively.

In experiment [1], `COc1ccc(F)cc1Nc1nc(-c2ccc(CN3CCOCC3)cc2)cs1` [Example 64, N-(5-fluoro-2-methoxyphenyl)-4-(4-(morpholinomethyl)phenyl)thiazol-2-amine.TFA] yielded a 50% inhibitory concentration (IC50) of 2 µM. For the same compound, the Kd in experiment [2] was determined as 6.2 µM; in experiment [3], 48 µM.

Consider `COc1ccc(F)cc1Nc1nc(-c2ccc(CN3CCC(F)CC3)cc2)cs1` [Example 62, N-(5-fluoro-2-methoxyphenyl)-4-(4-((4-fluoropiperidin-1-yl)methyl)phenyl)thiazol-2-amine.TFA], for which the IC50 in experiment [1] was determined as 1.6 µM. The Kd in experiment [2] was 5.7 µM; in experiment [3] it was 45 µM.

As to `CC(C)Oc1ccc(C(N)=O)cc1Nc1nc(-c2ccc(C3=CCNCC3)cc2)cs1` [Example 16, 4-Isopropoxy-3-((4-(4-(1,2,3,6-tetrahydropyridin-4-yl)phenyl)thiazol-2-yl)amino)benzamide.TFA], it took 0.049 µM to reach half-maximal inhibition in experiment [1] (IC50). Moreover, the values for the Kd in experiment [2] and in experiment [3] were 0.033 µM and 0.014 µM, respectively.

Turning to `COc1ccc(F)cc1Nc1nc(-c2ccc(OCCN3CCOCC3)cc2)cs1` [Example 66, N-(5-fluoro-2-methoxyphenyl)-4-(4-(2-morpholinoethoxy)phenyl)thiazol-2-amine.TFA], the 50% inhibitory concentration (IC50) in experiment [1] is 1.8 µM. The Kd was 2.9 µM in experiment [2] and greater than 19 µM in experiment [3].

Compound `CC(C)Oc1ccc(C(N)=O)cc1Nc1nc(-c2ccc(OCCN3CCC(F)(F)CC3)cc2)cs1` [Example 32, 3-((4-(4-(2-(4,4-Difluoropiperidin-1-yl)ethoxy)phenyl)thiazol-2-yl)amino)-4-isopropoxybenzamide.TFA] returned an IC50 in experiment [1] of 0.43 µM. In addition, the Kd in experiment [2] turned out to be 0.39 µM; in experiment [3], 0.1 µM.

`CC(C)Oc1ccc(C(N)=O)cc1Nc1nc(-c2ccc(CN3CCOCC3)cc2)cs1` [Example 58, 4-isopropoxy-3-((4-(4-(morpholinomethyl)phenyl)thiazol-2-yl)amino)benzamide.TFA]: the half-maximal inhibitory concentration (IC50) in experiment [1] amounted to 0.25 µM. Besides, the Kd in experiment [2] is 0.21 µM; in experiment [3], 0.056 µM.

Take `CC(C)Oc1ccc(C(N)=O)cc1Nc1nc(-c2ccc(N3CCN(C)CC3)cc2)cs1` [Example 8, 4-Isopropoxy-3-((4-(4-(4-methylpiperazin-1-yl)phenyl)thiazol-2-yl)amino)benzamide.TFA]: the IC50 in experiment [1] worked out at 0.11 µM. The Kd in experiment [2] was found to be 0.067 µM; in experiment [3], 0.029 µM.

As for `CC(C)Cc1ccc(C(N)=O)cc1Nc1nc(-c2ccc(OCCN3CCC(F)CC3)cc2)cs1` [Example 40, 3-((4-(4-(2-(4-fluoropiperidin-1-yl)ethoxy)phenyl)thiazol-2-yl)amino)-4-isobutylbenzamide.TFA], in experiment [1], the midpoint of inhibition, the IC50, lay at 1.3 µM. Moreover, the Kd in experiment [2] is 0.66 µM; in experiment [3] it was 0.19 µM.

Turning to `CC(C)Oc1ccc(C(N)=O)cc1Nc1nc(-c2ccc(N3CCN(Cc4ccccc4)CC3)cc2)cs1` [Example 11, 3-((4-(4-(4-Benzylpiperazin-1-yl)phenyl)thiazol-2-yl)amino)-4-isopropoxybenzamide.TFA], the 50% inhibitory concentration (IC50) in experiment [1] turned out to be 0.74 µM. In addition, the Kd in experiment [2] amounted to 0.87 µM; in experiment [3], 0.38 µM.

Consider `CC(C)Oc1ccc(C(N)=O)cc1Nc1nc(-c2ccc(CN3CCC(F)CC3)cc2)cs1` [Example 54, 3-((4-(4-((4-fluoropiperidin-1-yl)methyl)phenyl)thiazol-2-yl)amino)-4-isopropoxybenzamide.TFA], for which the half-inhibitory concentration (IC50) in experiment [1] came to 0.095 µM. Also, the Kd was 0.11 µM in experiment [2] and 0.031 µM in experiment [3].
